Data reported in US12583870B2, “Azaheteroaryl compound and application thereof” (SHANGHAI BLUERAY BIOPHARMA CO., LTD., priority 2019, dated 2026).

What was measured:
[1] = molecular target: T1, EED protein (His6-tagged full-length) binding to H3K27me3 polypeptide (Homo sapiens, UniProt O75530); experiment: AlphaScreen evaluation of blocking the binding of EED to H3K27Me3; details: EED 60 nM, biotinylated H3K27me3 75 nM, 30 minutes incubation
T1 construct: His6-tagged full-length EED protein (441 amino acids)
Description: Firstly, compound solutions of different concentration gradients were prepared. Compound powder was dissolved in DMSO to prepare a mother liquor. 1.5 μl of the mother liquor of the compound was taken and added into 198.5 μl of a reaction buffer (25 mM HEPES (pH 8.0), 50 mM NaCl, 0.015% Tween 20, 0.5% BSA). The mixture was mixed uniformly. Then a 3-fold series dilution was carried out with the above-mentioned buffer containing 0.75% DMSO. 9 different test concentrations were provided for one same compound. 5 μL of compounds of different concentration gradients were taken and added into the ProxiPlate-384 Plus, White detection plate (PerkinElmer, 6008280) and two replicates in parallel were provided for each concentration gradient.
Secondly, a reaction for blocking the binding was carried out. The above-mentioned buffer was used to dilute His6-tagged full-length EED protein (441 amino acids) to 60 nM and biotinylated polypeptide fragment H3K27me3 (amino acids at positions 19-33) (Biotinylated-H3K27me3) to 75 nM. 5 μl of the polypeptide fragment at the concentration of 75 nM and 5 µl of the protein at the concentration of 60 nM were transferred to the detection wells containing the compound, respectively. The detection plate was sealed with the film and incubation was carried out at room temperature for 30 minutes.
Finally, the detection was carried out with the AlphaScreen method. Prior use, nickel chelate receptor beads and streptavidin donor beads (at the ratio of 1:1, Perkin Elmer, product number 6760619M) were mixed with the above-mentioned reaction buffer. Then 5 μl of the above-mentioned pre-mixed detection solution was added to each of the detection wells. The donor beads and receptor beads were both at a final concentration of 5 μg/mL. The detection plate was covered and sealed with tinfoil and placed in the dark at room temperature for 1 hour. The signal was read using the AlphaScreen detector on the Spectra max i3. AlphaScreen signals were standardlized based on the readings obtained from positive controls (maximum signal controls) and negative controls (minimum signal controls) to give the inhibition rates for compounds at different concentrations, and afterwards non-linear regression analysis was carried out using GraphPad Prism 5, inhibition curves were made based on the Dose-Response equation of Y=Bottom+(Top−Bottom)/(1+10^((Log IC50−X)*HillSlope)) and the IC50 values of each compound were obtained. […]

[2] = tested on: trimethylation level of histone H3K27 in G401 cells; experiment: ELISA (H3K27 trimethylation) analysis in G401 cells; type: cell-based; details: Homo sapiens, G-401, 72 hours, H3K27me3 standardized to H3
Method in brief: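 Cells exposed 72 h to 10-point 3-fold dilutions, top 10 μM, 0.5% final DMSO. Acid-extracted histones assayed by ELISA (ECL) for H3K27me3, normalized to total H3 and to DMSO control; IC50 from dose-response fit.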

[3] = tested on: KARPAS-422 cells; experiment: Cell proliferation analysis, KARPAS-422, 13 days, CellTiter-Glo; type: cell-based; details: Homo sapiens, 312 h
Method in brief: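 KARPAS-422 cells were treated with PRC2 inhibitors over 9 three-fold dilutions from 10 μM top (0.5% DMSO, duplicates) in RPMI-1640 with 15% FBS at 37 °C. Every 3–4 days cells were counted and reseeded at 1×10^4/well with fresh compound. Viability was read by CellTiter-Glo luminescence on day 13.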

T1 sequence (O75530 whole entry): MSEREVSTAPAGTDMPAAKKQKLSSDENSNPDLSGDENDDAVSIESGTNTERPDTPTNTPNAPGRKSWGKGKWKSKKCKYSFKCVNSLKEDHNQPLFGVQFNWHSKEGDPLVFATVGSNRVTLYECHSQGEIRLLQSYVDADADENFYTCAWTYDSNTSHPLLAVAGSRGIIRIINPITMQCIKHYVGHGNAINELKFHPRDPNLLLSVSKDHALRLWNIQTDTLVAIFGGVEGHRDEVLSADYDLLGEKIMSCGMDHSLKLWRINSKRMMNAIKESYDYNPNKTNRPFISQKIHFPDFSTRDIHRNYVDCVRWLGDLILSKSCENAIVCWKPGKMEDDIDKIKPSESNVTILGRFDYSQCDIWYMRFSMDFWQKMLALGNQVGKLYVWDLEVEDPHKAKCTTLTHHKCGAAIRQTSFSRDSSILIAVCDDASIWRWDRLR

Row | IC50 [1] [µM] | IC50 [2] [µM] | IC50 [3] [µM] | Compound
1 | 0.0035 | 0.0041 | 0.0037 | NC(=O)c1cnc2c(-c3cnc(NCc4c(F)ccc5c4CCO5)n4cnnc34)cccn12 [8-(5-(((5-fluoro-2,3-dihydrobenzofuran-4-yl)methyl)amino)-[1,2,4]triazolo[4,3-c]pyrimidin-8-yl)imidazo[1,2-a]pyridine-3-carboxamide]
2 | 0.0052 | 0.0077 | 0.0075 | Fc1cc(-c2cnc(NCc3c(F)ccc4c3CCO4)n3cnnc23)c2ncc(F)n2c1 [8-(3,6-difluoroimidazo[1,2-a]pyridin-8-yl)-N-((5-fluoro-2,3-dihydrobenzofuran-4-yl)methyl)-[1,2,4]triazolo[4,3-c]pyrimidin-5-amine]
3 | 0.0062 | 0.001 | 0.0017 | CC(=O)OCCc1cnc2c(-c3cnc(NCc4c(F)ccc5c4CCO5)n4cnnc34)ccc(C)n12 [2-(8-(5-(((5-fluoro-2,3-dihydrobenzofuran-4-yl)methyl)amino)-[1,2,4]triazolo[4,3-c]pyrimidin-8-yl)-5-methylimidazo[1,2-a]pyridin-3-yl)ethyl acetate]
4 | 0.002 | 0.014 | 0.0087 | CC1=C(C)S(=O)(=O)c2c(F)cc(-c3cnc(NCc4c(F)ccc5c4CCO5)n4cnnc34)cc21 [7-fluoro-5-(5-(((5-fluoro-2,3-dihydrobenzofuran-4-yl)methyl)amino)-[1,2,4]triazolo[4,3-c]pyrimidin-8-yl)-2,3-dimethylbenzo[b]thiophene 1,1-dioxide]
5 | 0.0045 | 0.0028 | 0.0005 | O=S1(=O)C=Cc2cc(-c3cnc(NCc4c(F)ccc5c4CCO5)n4cnnc34)cc(F)c21 [7-fluoro-5-(5-(((5-fluoro-2,3-dihydrobenzofuran-4-yl)methyl)amino)-[1,2,4]triazolo[4,3-c]pyrimidin-8-yl)benzo[b]thiophene 1,1-dioxide]
6 | 0.0074 | 0.0057 | 0.004 | Cc1cnc2c(-c3cnc(NCc4c(F)ccc5c4CCO5)n4cnnc34)cc(F)cn12 [N-((5-fluoro-2,3-dihydrobenzofuran-4-yl)methyl)-8-(6-fluoro-3-methylimidazo[1,2-a]pyridin-8-yl)-[1,2,4]triazolo[4,3-c]pyrimidin-5-amine]
7 | 0.0049 | 0.0041 | 0.0125 | CC1=Cc2cc(-c3cnc(NCc4c(F)ccc5c4[C@H]4C[C@H]4O5)n4cnnc34)ccc2S1(=O)=O [5-(5-((((1aR,6bR)-5-fluoro-1a,6b-dihydro-1H-cyclopropa[b]benzofuran-6-yl)methyl)amino)-[1,2,4]triazolo[4,3-c]pyrimidin-8-yl)-2-methylbenzo[b]thiophene 1,1-dioxide]
8 | 0.0063 | 0.0006 | 0.0008 | O=S1(=O)C=c2ccc(-c3cnc(NCc4c(F)ccc5c4[C@H]4C[C@H]4O5)n4cnnc34)cc2=C1 [5-(5-((((1aR,6bR)-5-fluoro-1a,6b-dihydro-1H-cyclopropa[b]benzofuran-6-yl)methyl)amino)-[1,2,4]triazolo[4,3-c]pyrimidin-8-yl)benzo[c]thiophene 2,2-dioxide]
9 | 0.0043 | 0.0061 | 0.0154 | Fc1ccc2c(c1CNc1ncc(-c3ccc4ccnn4c3)c3nncn13)CCO2 [N-((5-fluoro-2,3-dihydrobenzofuran-4-yl)methyl)-8-(pyrazolo[1,5-a]pyridin-6-yl)-[1,2,4]triazolo[4,3-c]pyrimidin-5-amine]
10 | 0.0048 | 0.0025 | 0.0016 | CC(=O)c1c(C)nc2c(-c3cnc(NCc4c(F)ccc5c4CCO5)n4cnnc34)cccn12 [1-(8-(5-(((5-fluoro-2,3-dihydrobenzofuran-4-yl)methyl)amino)-[1,2,4]triazolo[4,3-c]pyrimidin-8-yl)-2-methylimidazo[1,2-a]pyridin-3-yl)ethan-1-one]
11 | 0.566 | 0.16 | 0.079 | O=S1(=O)C(F)=Cc2cc(-c3cnc(NCc4c(F)ccc5c4[C@H]4C[C@H]4O5)n4cnnc34)ccc21 [2-fluoro-5-(5-((((1aR,6bR)-5-fluoro-1a,6b-dihydro-1H-cyclopropa[b]benzofuran-6-yl)methyl)amino)-[1,2,4]triazolo[4,3-c]pyrimidin-8-yl)benzo[b]thiophene 1,1-dioxide]
12 | 0.0092 | 0.0078 | 0.0042 | Cc1nc2c(-c3cnc(NCc4c(F)ccc5c4CCO5)n4cnnc34)cccc2o1 [N-((5-fluoro-2,3-dihydrobenzofuran-4-yl)methyl)-8-(2-methylbenzo[d]oxazol-4-yl)-[1,2,4]triazolo[4,3-c]pyrimidin-5-amine]
13 | 0.0042 | 0.0058 | 0.0055 | CC1=C(F)c2cc(-c3cnc(NCc4c(F)ccc5c4[C@H]4C[C@H]4O5)n4cnnc34)ccc2S1(=O)=O [3-fluoro-5-(5-((((1aR,6bR)-5-fluoro-1a,6b-dihydro-1H-cyclopropa[b]benzofuran-6-yl)methyl)amino)-[1,2,4]triazolo[4,3-c]pyrimidin-8-yl)-2-methylbenzo[b]thiophene 1,1-dioxide]
14 | 0.0049 | 0.0003 | 0.0004 | O=S1(=O)C=c2ccc(-c3cnc(NCc4c(F)ccc5c4CCO5)n4cnnc34)cc2=C1 [5-(5-(((5-fluoro-2,3-dihydrobenzofuran-4-yl)methyl)amino)-[1,2,4]triazolo[4,3-c]pyrimidin-8-yl)benzo[c]thiophene 2,2-dioxide]
15 | 0.0141 | 0.003 | 0.0024 | Cc1cn2cccc(-c3cnc(NCc4c(F)ccc5c4CCO5)n4cnnc34)c2n1 [N-((5-fluoro-2,3-dihydrobenzofuran-4-yl)methyl)-8-(2-methylimidazo[1,2-a]pyridin-8-yl)-[1,2,4]triazolo[4,3-c]pyrimidin-5-amine]
16 | 0.0083 | 0.0014 | 0.0033 | Cc1ccc(-c2cnc(NCc3c(F)ccc4c3CCO4)n3cnnc23)c2nc(CO)cn12 [(8-(5-(((5-fluoro-2,3-dihydrobenzofuran-4-yl)methyl)amino)-[1,2,4]triazolo[4,3-c]pyrimidin-8-yl)-5-methylimidazo[1,2-a]pyridin-2-yl)methanol]
17 | 0.021 | 0.0052 | 0.0086 | OCc1ccc(-c2cnc(NCc3c(F)ccc4c3CCO4)n3cnnc23)c2nccn12 [(8-(5-(((5-fluoro-2,3-dihydrobenzofuran-4-yl)methyl)amino)-[1,2,4]triazolo[4,3-c]pyrimidin-8-yl)imidazo[1,2-a]pyridin-5-yl)methanol]
18 | 0.0095 | 0.0074 | 0.0048 | Fc1ccc2c(c1CNc1ncc(-c3cccn4cnnc34)c3nncn13)[C@H]1C[C@H]1O2 [8-([1,2,4]triazolo[4,3-a]pyridin-8-yl)-N-(((1aR,6bR)-5-fluoro-1a,6b-dihydro-1H-cyclopropa[b]benzofuran-6-yl)methyl)-[1,2,4]triazolo[4,3-c]pyrimidin-5-amine]
19 | 0.0049 | 0.013 | 0.0136 | Fc1ccc2c(c1CNc1ncc(-c3cccc4ncoc34)c3nncn13)CCO2 [8-(benzo[d]oxazol-7-yl)-N-((5-fluoro-2,3-dihydrobenzofuran-4-yl)methyl)-[1,2,4]triazolo[4,3-c]pyrimidin-5-amine]
20 | 0.0046 | 0.0016 | 0.0014 | Cc1cnc2c(-c3cnc(NCc4c(F)ccc5c4CCO5)n4cnnc34)cccn12 [N-((5-fluoro-2,3-dihydrobenzofuran-4-yl)methyl)-8-(3-methylimidazo[1,2-a]pyridin-8-yl)-[1,2,4]triazolo[4,3-c]pyrimidin-5-amine]
21 | 0.011 | 0.127 | – | CC1=C(Cl)c2cc(-c3cnc(NCc4c(F)ccc5c4[C@H]4C[C@H]4O5)n4cnnc34)ccc2S1(=O)=O [3-chloro-5-(5-((((1aR,6bR)-5-fluoro-1a,6b-dihydro-1H-cyclopropa[b]benzofuran-6-yl)methyl)amino)-[1,2,4]triazolo[4,3-c]pyrimidin-8-yl)-2-methylbenzo[b]thiophene 1,1-dioxide]
